target: human H4 receptor (Homo sapiens (Human), UniProt Q9H3N8); assay: Binding assay on recombinant human histamine H4 receptor ([3H]histamine competition, SK-N-MC cell membranes); conditions: membranes harvested with 96 well Brandel system; [3H]histamine 10 nM; average of results; read-out: Brandel Ki
Procedure: Binding Assay on Recombinant Human Histamine H4Receptor
Cell pellets from SK-N-MC cells stably or transiently transfected with human H4 receptor (NCBI accession No. AF312230) were used for the binding assays. Cell pellets were homogenized in 50 mM Tris/5 mM EDTA buffer and supernatants from an 800 g spin were collected and recentrifuged at 30,000 g for 30 min. Pellets were rehomogenized in 50 mM Tris/5 mM EDTA buffer. […] Membranes were harvested by rapid filtration using the 96 well Brandel system (Table 1, Brandel) or a cell harvester (Table 1, Cell Harvester) using a Whatman GF/C filter or filter plates treated with 0.5% polyethylenimine (PEI), and washed 4 times with ice-cold 50 mM Tris/5 mM EDTA buffer. Filters were then dried, mixed with scintillant and radioactive counts were determined. […] Where activity is shown as greater than (>) a particular value, the value is the highest concentration tested.

Chain of human H4 receptor (Q9H3N8 whole entry): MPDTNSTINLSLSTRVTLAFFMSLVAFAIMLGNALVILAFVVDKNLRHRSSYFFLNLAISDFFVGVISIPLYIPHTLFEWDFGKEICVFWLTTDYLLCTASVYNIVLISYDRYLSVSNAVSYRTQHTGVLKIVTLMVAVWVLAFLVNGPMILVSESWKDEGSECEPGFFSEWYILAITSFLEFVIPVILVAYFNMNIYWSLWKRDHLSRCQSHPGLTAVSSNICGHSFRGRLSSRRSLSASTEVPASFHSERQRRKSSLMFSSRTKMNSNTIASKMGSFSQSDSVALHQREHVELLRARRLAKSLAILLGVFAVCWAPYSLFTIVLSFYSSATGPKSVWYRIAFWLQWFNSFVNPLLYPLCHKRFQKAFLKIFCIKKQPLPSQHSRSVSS

`CC(C)CNc1cc(N2CCN(C)CC2)ccn1` [Example 21, 4-(4-Methylpiperazin-1-yl)-N-(2-methylpropyl)pyridin-2-amine] and `CC(C)Nc1nccc(N2CC(N)C2)n1` [Example 90, 4-(3-Aminoazetidin-1-yl)-N-(1-methylethyl)pyrimidin-2-amine] are within 1.5-fold of each other in Ki: 0.0514 µM for the first, 0.0689 µM for the second.

Going from `CCCCNc1cc(N2CC[C@@H](NC)C2)cnn1` [Example 100, N-Butyl-5-[(3R)-3-(methylamino)pyrrolidin-1-yl]pyridazin-3-amine] to `CCCCNc1nccc(N2CC[C@@H](NC)C2)n1` [Example 73, Butyl-[4-(3R)-(3-methylamino-pyrrolidin-1-yl)-pyrimidin-2-yl]-amine], the Ki falls from 0.031 µM to 0.002 µM (16-fold). The second binds more tightly here.

Compound `CN[C@@H]1CCN(c2cnnc(N[C@H]3C[C@H]4C[C@@H]([C@@H]3C)C4(C)C)c2)C1` [Example 97, 5-[(3R)-3-(Methylamino)pyrrolidin-1-yl]-N-[(1S,2S,3S,5R)-2,6,6-trimethylbicyclo[3.1.1]hept-3-yl]pyridazin-3-amine] has a Ki of 0.0059 µM.

same assay, conditions: membranes harvested with cell harvester; [3H]histamine 10 nM; average of results; read-out: Cell Harvester Ki

First: CN1CCN(c2ccnc(NC3CCC3)n2)CC1 [Example 54, N-Cyclobutyl-4-(4-methylpiperazin-1-yl)pyrimidin-2-amine]
Second: CSCCNc1nccc(N2CCN(C)CC2)n1 [Example 164, 4-(4-Methylpiperazin-1-yl)-N-[2-(methylsulfanyl)ethyl]pyrimidin-2-amine]
The Ki of the first is 2.4-fold higher: 0.0879 µM for the first, 0.0362 µM for the second.

Going from `CN[C@@H]1CCN(c2cnnc(N[C@H](C)C3CCCCC3)c2)C1` [Example 378, N-[(1R)-1-Cyclohexylethyl]-5-[(3R)-3-(methylamino)pyrrolidin-1yl]pyridazin-3-amine] to `CN[C@H]1CCN(c2ccnc(NCC3CCCCC3)c2)C1` [Example 225, N-(Cyclohexylmethyl)-4-[(3S)-3-(methylamino)pyrrolidin-1-yl]pyridin-2-amine], the Ki rises from 0.00616 µM to 0.0751 µM (12-fold).

First: CN(CCN)c1cnnc(NCC(C)(C)C)c1 [Example 300, N^5-(2-Aminoethyl)-N^3-(2,2-dimethylpropyl)-N^5-methylpyridazine-3,5-diamine]
Second: CNC1CN(c2cnnc(NCC(C)C)c2)C1 [Example 319, 5-[3-(Methylamino)azetidin-1-yl]-N-(2-methylpropyl)pyridazin-3-amine]
The Ki of the first is 3.9-fold higher: 1.86 µM for the first, 0.478 µM for the second.

Compared with `c1ccc(CNc2cc(N3CCNCC3)ccn2)nc1` [Example 260, 4-Piperazin-1-yl-N-(pyridin-2-ylmethyl)pyridin-2-amine], `CN1CCN(c2ccnc(NCc3ccccn3)c2)CC1` [Example 244, 4-(4-Methylpiperazin-1-yl)-N-(pyridin-2-ylmethyl)pyridin-2-amine] is lower in Ki: > 10 µM for the first, 3.88 µM for the second. The second binds more tightly here.

Compared with `CN[C@@H]1CCN(c2cnnc(NCCCC(F)(F)F)c2)C1` [Example 386, 5-[(3R)-3-(Methylamino)pyrrolidin-1-yl]-N-(4,4,4-trifluorobutyl)pyridazin-3-amine], `CCCCNc1cc(N2CC[C@@H](NC)C2)cnn1` [Example 100, N-Butyl-5-[(3R)-3-(methylamino)pyrrolidin-1-yl]pyridazin-3-amine] is 9.2-fold lower in Ki: 0.284 µM for the first, 0.031 µM for the second.

`COc1ccc(CNc2cc(N3CC[C@@H](N)C3)cnn2)cc1` [Example 341, 5-[(3R)-3-Aminopyrrolidin-1-yl]-N-(4-methoxybenzyl)pyridazin-3-amine] and `N[C@@H]1CCN(c2cnnc(NCc3ccccn3)c2)C1` [Example 337, 5-[(3R)-3-Aminopyrrolidin-1-yl]-N-(pyridin-2-ylmethyl)pyridazin-3-amine] cannot be ordered by Ki: > 10 µM for the first, > 10 µM for the second.

Compared with `CN[C@H]1CCN(c2cnnc(NCC3CCC4CC3C4(C)C)c2)C1` (stereo partly drawn) [Example 394, N-[(6,6-Dimethylbicyclo[3.1.1]hept-2-yl)methyl]-5-[(3S)-3-(methylamino)pyrrolidin-1-yl]pyridazin-3-amine], `CN[C@@H]1CCN(c2cnnc(N[C@H]3C[C@H]4C[C@@H]([C@@H]3C)C4(C)C)c2)C1` [Example 97, 5-[(3R)-3-(Methylamino)pyrrolidin-1-yl]-N-[(1S,2S,3S,5R)-2,6,6-trimethylbicyclo[3.1.1]hept-3-yl]pyridazin-3-amine] is 110-fold lower in Ki: 0.634 µM for the first, 0.0059 µM for the second. The second binds more tightly here.

`CC(C)(CO)CNc1nccc(N2CC[C@H](N)C2)n1` [Example 130, 3-({4-[(3S)-3-Aminopyrrolidin-1-yl]pyrimidin-2-yl}amino)-2,2-dimethylpropan-1-ol] and `CC(C)(O)CNc1nccc(N2CC[C@H](N)C2)n1` [Example 110, 1-({4-[(3S)-3-Aminopyrrolidin-1-yl]pyrimidin-2-yl}amino)-2-methylpropan-2-ol] are within 1.5-fold of each other in Ki: 0.849 µM for the first, 0.837 µM for the second.

Going from `CNC1CN(c2ccnc(NC3CCOCC3)n2)C1` [Example 108, 4-[3-(Methylamino)azetidin-1-yl]-N-(tetrahydro-2H-pyran-4-yl)pyrimidin-2-amine] to `N[C@@H]1CCN(c2ccnc(N[C@@H]3CCOC3)n2)C1` [Example 29, 4-[(3R)-3-Aminopyrrolidin-1-yl]-N-[(3R)-tetrahydrofuran-3-yl]pyrimidine-2-amine], the Ki falls from 0.141 µM to 0.0585 µM (2.4-fold).

Going from `COCCNc1cc(N2CC[C@H](N)C2)ccn1` [Example 264, 4-[(3S)-3-Aminopyrrolidin-1-yl]-N-(2-methoxyethyl)pyridin-2-amine] to `CCCCNc1cc(N2CC[C@H](NC)C2)ccn1` [Example 243], the Ki falls from > 10 µM to 0.167 µM.

Compared with `N[C@@H]1CCN(c2ccnc(NCCCC(F)(F)F)n2)C1` [Example 150, 4-[(3R)-3-Aminopyrrolidin-1-yl]-N-(4,4,4-trifluorobutyl)pyrimidin-2-amine], `N[C@H]1CCN(c2ccnc(NCC3CC3)n2)C1` [Example 109, 4-[(3S)-3-Aminopyrrolidin-1-yl]-N-(cyclopropylmethyl)pyrimidin-1-amine] is 2.2-fold higher in Ki: 0.0297 µM for the first, 0.064 µM for the second. The first binds more tightly here.

Going from `N[C@@H]1CCN(c2cnnc(NCC3CC3)c2)C1` [Example 369, 5-[(3R)-3-Aminopyrrolidin-1-yl]-N-(cyclopropylmethyl)pyridazin-3-amine] to `N[C@H]1CCN(c2cnnc(NC3CC3)c2)C1` [Example 336, 5-[(3S)-3-Aminopyrrolidin-1-yl]-N-cyclopropylpyridazin-3-amine], the Ki rises from 0.619 µM to > 10 µM. The first binds more tightly here.

Going from `c1nnc(NC2CCCC2)cc1N1C[C@H]2CCN[C@H]2C1` [Example 345, N-Cyclopentyl-5-[(3aR,6aR)-hexahydropyrrolo[3,4-b]pyrrol-5(1H)-yl]pyridazin-3-amine] to `c1cc(N2C[C@H]3CCN[C@H]3C2)nc(NC2CCCC2)n1` [Example 139, N-Cyclopentyl-4-[(3aR,6aR)-hexahydropyrrolo[3,4-b]pyrrol-5(1H)-yl]pyrimidin-2-amine], the Ki falls from 1.32 µM to 0.00796 µM (170-fold).

Going from `COCCNc1nccc(N2CCNCC2)n1` [Example 72, N-(2-Methoxyethyl)-4-piperazin-1-ylpyrimidin-2-amine] to `CCCCNc1nccc(N2CC[C@@H](NC)C2)n1` [Example 73, Butyl-[4-(3R)-(3-methylamino-pyrrolidin-1-yl)-pyrimidin-2-yl]-amine], the Ki falls from 0.376 µM to 0.0007 µM (540-fold). The second binds more tightly here.

Going from `N[C@@H]1CCN(c2ccnc(NCc3ccccc3)n2)C1` [Example 179, 4-[(3R)-3-Aminopyrrolidin-1-yl]-N-benzylpyrimidin-2-amine] to `CC(C)Nc1nccc(N2CC[C@@H](N)C2)n1` [Example 52, 4-[(3R)-3-Aminopyrrolidin-1-yl]-N-(1-methylethyl)pyrimidin-2-amine], the Ki falls from 0.788 µM to 0.0334 µM (24-fold). The second binds more tightly here.

Going from `NC1CCN(c2cnnc(NCC3CC4CCC3C4)c2)C1` (stereo in doubt) [Example 304, 5-[(3S)-3-Aminopyrrolidin-1-yl]-N-(bicyclo[2.2.1]hept-2-ylmethyl)pyridazin-3-amine] to `NC1CCN(c2cnnc(NCCCO)c2)C1` (stereo in doubt) [Example 338, 3-({5-[(3S)-3-Aminopyrrolidin-1-yl]pyridazin-3-yl}amino)propan-1-ol], the Ki rises from 0.31 µM to > 10 µM.

Compared with `CC(C)CNc1nccc(N2C[C@H]3CCN[C@H]3C2)n1` [Example 138, 4-[(3aR,6aR)-Hexahydropyrrolo[3,4-b]pyrrol-5(1H)-yl]-N-(2-methylpropyl)pyrimidin-2-amine], `CNC1CN(c2ccnc(NCC(C)C)n2)C1` [Example 171, 4-[3-(Methylamino)azetidin-1-yl]-N-(2-methylpropyl)pyrimidin-2-amine] is 6.1-fold lower in Ki: 0.0238 µM for the first, 0.00389 µM for the second.

Compared with `C[C@@H](Nc1nccc(N2C[C@H]3CCN[C@H]3C2)n1)c1ccccc1` [Example 141, 4-[(3aR,6aR)-Hexahydropyrrolo[3,4-b]pyrrol-5(1H)-yl]-N-[(1R)-1-phenylethyl]pyrimidin-2-amine], `CC(C)Nc1nccc(N2CC(N)C2)n1` [Example 90, 4-(3-Aminoazetidin-1-yl)-N-(1-methylethyl)pyrimidin-2-amine] is 22-fold lower in Ki: 2.32 µM for the first, 0.106 µM for the second.

First: CN[C@@H]1CCN(c2ccnc(Nc3ccccc3)c2)C1 [Example 33, 4-[(3R)-3-(Methylamino)pyrrolidin-1-yl]-N-phenylpyridin-2-amine]
Second: CN[C@@H]1CCN(c2ccnc(N[C@H]3C[C@H]4CC[C@]3(C)C4(C)C)c2)C1 [Example 247, 4-[(3R)-3-(Methylamino)pyrrolidin-1-yl]-N-[(1R,2S,4R)-1,7,7-trimethylbicyclo[2.2.1]hept-2-yl]pyridin-2-amine]
The Ki of the first is 1.6-fold lower: 0.0009 µM for the first, 0.00141 µM for the second.

`N[C@@H]1CCN(c2ccnc(NC3CCCC3)c2)C1` [Example 292, 4-[(3R)-3-Aminopyrrolidin-1-yl]-N-cyclopentylpyridin-2-amine] and `CNC1CN(c2ccnc(NC3CCCC3)c2)C1` [Example 259, N-Cyclopentyl-4-[3-(methylamino)azetidin-1-yl]pyridin-2-amine] are within 1.5-fold of each other in Ki: 0.00701 µM for the first, 0.00515 µM for the second.

First: c1nnc(NC2CCCCC2)cc1N1CCNCC1 [Example 355, N-Cyclohexyl-5-piperazin-1-ylpyridazin-3-amine]
Second: OCCCNc1cc(N2CCNCC2)cnn1 [Example 314, 3-[(5-Piperazin-1-ylpyridazin-3-yl)amino]propan-1-ol]
The Ki of the first is lower: 2.9 µM for the first, > 10 µM for the second.

First: CNC1CN(c2ccnc(NC(C)(C)C)c2)C1 [Example 280, N-tert-Butyl-4-[3-(methylamino)azetidin-1-yl]pyridin-2-amine]
Second: CNC1CN(c2ccnc(NCCCO)c2)C1 [Example 283, 3-({4-[3-(Methylamino)azetidin-1-yl]pyridin-2-yl}amino)propan-1-ol]
The Ki of the first is 16-fold lower: 0.00996 µM for the first, 0.162 µM for the second. The first binds more tightly here.

`CN[C@@H]1CCN(c2ccnc(NCC3CCCO3)n2)C1` (stereo partly drawn) [Example 81, [4-(3R)-(3-Methylamino-pyrrolidin-1-yl)-pyrimidin-2-yl]-(tetrahydro-furan-2-ylmethyl)-amine] was tested, and the Ki was 0.0247 µM.
